Data published in publication PMC12040169 (PLOS Biology, 2025).

Assay: in vitro
Conditions: human, hela cells, % viability

Compound | viability at 28.5 h, 10 µM
OCCCNc1nccnc1-c1cccnc1 [CBK037277] | 108%
CC(C)(O)C#Cc1ccccc1C(=O)NC(Cc1c[nH]c2ccccc12)C(=O)O (stereo not drawn) [CBK267701] | 80.4%
CCn1cc(S(=O)(=O)Nc2ccc3c(ccn3C)c2)c(C)n1 [CBK282818] | 84.2%
COc1cccc2c1ncc1c(=O)nc(N)sc12 [CBK291241] | 88.9%
CN(C)c1ccc(Nc2cc(-c3cccc4ccccc34)ncn2)cc1 [CBK037835] | 46.8%
O=C(NCCCN1CCOCC1)c1ccc2nccnc2c1 [CBK268704] | 114%
O=C(O)CCC(=O)N1CC[C@H]2NC(=O)N(c3ccc(F)cc3)C(=O)[C@H]21 [CBK289329] | 103%
Cc1ccc(CN(C)CC(=O)Nc2cc(C(F)(F)F)ccc2Cl)o1 [CBK306085] | 90.4%
Cn1cc(NC(=O)c2ccc(COc3c(F)c(F)cc(F)c3F)o2)c(C(=O)O)n1 [CBK287014] | 98.5%
CC(=O)c1sccc1NS(=O)(=O)c1ccccc1 [CBK038384] | 92.5%
C[C@@H]1C[C@H](C(F)(F)F)n2nc(C3CCCN3C(=O)C3CC3)cc2N1 (stereo partly drawn) [CBK285432] | 90.6%
COc1ccc(-c2cnn(-c3cncnc3)n2)cc1 [CBK112763] | 94.5%
N#C/C(=C\c1cn(-c2ccccc2)nc1-c1ccc(S(=O)(=O)N2CCOCC2)cc1)c1nc2ccccc2c(=O)[nH]1 [CBK266343] | 104%
O=c1[nH]c2ccccc2n1CCCN1CCC(Cc2ccccc2)CC1 [CBK138318] | 104%
O=S(=O)(NCc1ccccc1)c1cc(S(=O)(=O)c2ccc(Cl)cc2)ccc1Cl [CBK263207] | 109%
COc1ccc(C2CC(c3c(-c4ccccc4)c4cc(Cl)ccc4[nH]c3=O)=NN2C(=O)CCC(=O)O)cc1OC (stereo not drawn) [CBK296128] | 103%
O=C(c1nc2ccccc2[nH]1)N1CCc2ccccc21 [CBK200411] | 87.8%
COc1cccc(CN2CCCC(c3nc(C)n4ccccc34)C2)c1 (stereo not drawn) [CBK282989] | 101%
Cc1ccccc1-n1ncc2c(=O)n(Cc3ccccc3)cnc21 [CBK287690] | 96.9%
CCn1cc(C(=O)O)c(=O)c2cc(F)c(N3CCN(C(=S)Nc4cccc5ccccc45)CC3)cc21 [CBK265809] | 97.4%
CS(=O)(=O)N(CC(=O)Nc1ccc2c(c1)OCO2)c1ccc(Oc2ccccc2)cc1 [CBK263989] | 91.5%
O=C(O)CC(Cc1ccc(Cl)cc1)C(=O)Nc1ccccc1I (stereo not drawn) [CBK262021] | 90%

Compound | viability at 28.5 h, 10 µM
O=C(c1ccco1)N1C2CCC1CC(O)(c1cccnc1F)C2 (stereo not drawn) [CBK284417] | 98.6%
O=C(O)c1ccc(C2(c3ccc(C(=O)O)cc3)OC(=O)c3ccccc32)cc1 [CBK261150] | 98.2%
O=C(c1cc[nH]n1)N1CCc2nc(-c3cccc(F)c3)sc2C1 [CBK281915] | 84.9%
O=C(CNS(=O)(=O)Cc1ccccc1[N+](=O)[O-])Nc1ccc(F)cc1 [CBK042228] | 90%
O=C(Cc1ccsc1)N1CCC2(CCCNC2)C1 (stereo not drawn) [CBK137153C] | 85.4%
COc1cc(/C=N/c2ccc3oc(-c4ccc(C(C)(C)C)cc4)nc3c2)ccc1OC(=O)c1ccc(Cl)cc1Cl [CBK261238] | 104%
COc1ccc(Cl)cc1NC(=O)CN(c1cc([N+](=O)[O-])ccc1C)S(C)(=O)=O [CBK266394] | 114%
c1cc(-c2nccnc2Oc2ccc3c(c2)OCO3)ccn1 [CBK106726] | 92.4%
COc1cccc(-c2cc(C(=O)N3CCC(C)CC3)n[nH]2)c1 [CBK288109] | 94.3%
CCC(C(=O)Nc1ccc(OC(C)=O)cc1C(=O)O)c1ccccc1 (stereo not drawn) [CBK269685] | 94.5%
COc1cc(C2CN=NC23Cc2ccccc2C3=O)cc(OC)c1OC (stereo not drawn) [CBK019341] | 90.4%
O=C(CSC1=NC(=O)C(Cc2ccccc2)C(=O)N1)Nc1ncccn1 (stereo not drawn) [CBK263906] | 120%
COc1ccc(CCN2C(=O)CC(C(=O)O)S/C2=N\c2ccccc2)cc1 (stereo not drawn) [CBK286606] | 90.6%
CCOC(=O)c1sc(-c2cccc(C)n2)nc1O [CBK081083] | 84.5%
CCC(C)(C)c1ccc(S(=O)(=O)N2CCCN(Cc3ccnc4ccccc34)CC2)cc1 [CBK062865] | 92.1%
COc1cc(NC(=O)c2cnc(-c3ccc(Cl)cc3)c(-c3ccco3)c2)cc(C(F)(F)F)c1 [CBK037570] | 91.4%
CCOC(=O)C1=NOC2COC3(CCN(c4ncccn4)CC3)OCC12 (stereo not drawn) [CBK018602] | 94.3%
CC1CCC(C(N)=O)CN1C(=O)c1cc(Br)c[nH]1 (stereo not drawn) [CBK305769] | 94%
Cn1ccnc1CN1CCC2(CC1)CC(C(=O)O)N(C(=O)C1CC1)C2 (stereo not drawn) [CBK306986] | 88.2%
COc1ccc(Cl)cc1S(=O)(=O)N1CCC(C(=O)O)CC1 [CBK269607] | 79.1%
FC(F)(F)c1ccc(Sc2ccncc2)nc1 [CBK115217] | 108%
Cc1ncc(CN(C)C(=O)c2cccc(NC(=O)C3CCCCC3)c2)s1 [CBK306295] | 83%

Compound | viability at 28.5 h, 10 µM
CC(C)CN(CC(N)=O)CC(=O)NC1(c2ccccc2)CCC1 [CBK066883T] | 88.9%
Cc1nn(Cc2c(F)cccc2Cl)c(C)c1NC(=O)CCCC(=O)O [CBK286838] | 108%
COCCN1C(=O)C2(CC(=O)N(CCNS(C)(=O)=O)C2=O)c2cc(C)ccc21 (stereo not drawn) [CBK075479] | 98.2%
O=c1cc(NCCCN2CCN(Cc3ccccc3)CC2)c2ccccc2o1 [CBK011079] | 81%
Cc1cc(C)c2c(N)nc(N)nc2n1 [CBK025968] | 105%
COc1ccc(-c2nccnc2NCC2CC2)cc1 [CBK038048] | 95.7%
CCC1CN(CC(=O)NCc2ccc(OCC(N)=O)cc2)CCO1 (stereo not drawn) [CBK305774] | 102%
O=C(CC1Nc2ccccc2NC1=O)Nc1cccc(C(F)(F)F)c1 (stereo not drawn) [CBK262510] | 99.6%
CCOC(=O)C(C)N1C(=O)S/C(=C/c2cc(Cl)c(OCC(=O)O)c(Br)c2)C1=O (stereo not drawn) [CBK265163] | 99.9%
CCc1ccc2[nH]c3nc(NN)nnc3c2c1 [CBK262734] | 65.1%
COc1ccc(/C=C/C2=CCN(C)CC2)cc1Cn1cccn1 [CBK283859] | 90.8%
O=C(O)CC1Sc2ccccc2NC1=O (stereo not drawn) [CBK261308] | 101%
COc1ccc([C@@]23CC[C@@H](NC(=O)c4ccc(-c5ccccc5)cc4)CC2N(C)CC3)cc1OC (stereo partly drawn) [CBK074973T] | 89.6%
Cc1ncccc1COC(=O)N1CCC(C(F)(F)F)CC1 [CBK200154] | 102%
O=C(C[C@@H]1CCNC[C@@H]1Cc1cc(-c2ccccc2)on1)N1CCN(c2ccccc2)CC1 [CBK289148] | 83.2%
O=C(COc1ccccc1[N+](=O)[O-])Nc1cc(-c2nc3cc(Cl)ccc3o2)ccc1Cl [CBK268639] | 116%
CC1CCN(S(=O)(=O)c2ccc(C(=O)NC(C(=O)O)C(C)O)cc2)CC1 (stereo not drawn) [CBK297151] | 99.1%
CC(=O)NC(NC(=S)Nc1sc2c(c1C(N)=O)CCCC2)C(Cl)(Cl)Cl (stereo not drawn) [CBK261054] | 101%
CC(C)NC(=O)N(C)C1CCN(c2ncnc3ccccc23)CC1 [CBK306224] | 92.4%
COc1ccc(C(=O)Nc2nc3c(C)c(C)ccc3s2)cc1 [CBK291210] | 107%
Cc1cccc(-c2nnc(SCC3CC3)n2CC2CCCCC2)c1 [CBK085423] | 87.7%
COc1cccc2c1cc(C(=O)NCCCc1ccccn1)n2C [CBK283283] | 83.7%

Compound | viability at 28.5 h, 10 µM
COC[C@H]1CCCN1C(=O)[C@@H](C)C1CC[C@@]2(C)CC[C@H](NC(C)=O)[C@@H](C)[C@@H]2[C@H]1O (stereo partly drawn) [CBK289438] | 110%
N#C/C(=C\c1ccc(-c2cccc(C(=O)O)c2)o1)c1nc2ncc(Br)cc2[nH]1 [CBK265054] | 96.1%
Cc1c(C(=O)N2CCCCC2C(N)=O)nnn1Cc1ccc(F)cc1F (stereo not drawn) [CBK304425] | 93.7%
CC(=O)NS(=O)(=O)c1ccc(NC(=N)Nc2nc(C)cc(C)n2)cc1 [CBK263117C] | 90.1%
NC1=NC(=O)N([C@H]2C[C@@H](O)[C@@H](CO)O2)CN1 [CBK201248] | 108%
CCOC(=O)c1cccnc1-c1ccc(S(C)(=O)=O)cc1 [CBK149242] | 105%
CCCc1nn(CC(=O)N(CC)CC)c(=O)c2cc3ccsc3n12 [CBK284192] | 81.3%
Cc1sc2nc(Cc3ccccc3)n(C3CCN(C(=O)c4ccco4)CC3)c(=O)c2c1C [CBK286317] | 97.3%
OC1(c2cccnc2)CCCN(Cc2ccccc2F)CC1 (stereo not drawn) [CBK283009] | 96.4%
CCS(=O)(=O)N1CCCCCC1c1nn(C)cc1Cl (stereo not drawn) [CBK284672] | 83.6%
CCn1cc(C(=O)O)c(=O)c2cc(F)c(N(C)CCc3ccc(OC)c(OC)c3)cc21 [CBK263070] | 97.1%
Cc1cccnc1CN(C)C(=O)c1cccc(NC(=O)C2CCCC2)c1 [CBK306913] | 82.9%
Cc1ccc2[nH]c(/C(C#N)=C\c3cn(CC(=O)Nc4ccccc4)c4ccccc34)nc2c1 [CBK267612] | 105%
O=C(c1ccc(F)cc1)C1CCN(C/C=C/c2ccccc2)CC1 [CBK149124] | 90.4%
CCn1nc(C)c(C(C)NC(=O)C(C)n2cc(Cl)cn2)c1C (stereo not drawn) [CBK281550] | 89.7%
Cc1cc(C(F)(F)F)nn1CCCNC(=O)c1cc(-c2ccccc2)nc2ccccc12 [CBK267755] | 85%
COC(=O)CCC(=O)Nc1ccc(S(N)(=O)=O)cc1 [CBK261351] | 88.1%
CC(=O)Cc1ccccc1OCC(=O)O [CBK261031] | 90.9%
Cc1ccc(-c2noc(CN(C(=O)CCc3ccccc3)C(C)C)n2)cc1 [CBK269313] | 99.3%
Nc1ccccc1Sc1ccccn1 [CBK085854] | 103%
O=C(CSc1nc(-c2cccc([N+](=O)[O-])c2)cs1)NCC1CCCO1 (stereo not drawn) [CBK268020] | 92.8%
